Data on eight compounds can be found in US20110245351A1, “MEDICAL ADHESIVE FOR SURGERY” (BAYER MATERIALSCIENCE AG, priority 2008, published 2011).

Some results are limits rather than exact numbers.

The data set is described as follows: Processing / curing time of the adhesive from prepolymer A-1 and secondary diamine. Format: physicochemical. The settings on record: for Processing time: diamine as curing agent for prepolymer A-1. On the procedure:
1 g of the prepolymer A-1 were stirred well in a beaker with an equivalent quantity of dimethyl 2,2′-(pentane-1,5-diylbis(azandiyl))bis(4-methylpentanoate). Directly after this, the reaction mixture was applied thinly onto the tissue to be glued. […] After 2 mins, the surface of the adhesive was no longer tacky.

[1] abbreviates: 1 g prepolymer A-1 with equivalent quantity of diamine, applied thinly onto tissue.

As to `COC(=O)C(NCCCNC(C(=O)OC)C(C)C)C(C)C` (stereo not drawn), the Processing time came out at 4 min.
On the same count and under the same terms, in the case of `COC(=O)C(CC(C)C)NCCCCCNC(CC(C)C)C(=O)OC` (stereo not drawn) [drawing 17] it was 4 min; in that of `COC(=O)C(Cc1ccccc1)NCCCNC(Cc1ccccc1)C(=O)OC` (stereo not drawn), 4 min; in that of `COC(=O)C(Cc1ccccc1)NCCCCCCNC(Cc1ccccc1)C(=O)OC` (stereo not drawn), 4 min.
Take `CCC(C)C(NCCCNC(C(=O)OC)C(C)CC)C(=O)OC` (stereo not drawn): the Processing time was 3 min.
For `COC(=O)C(CC(C)C)NCCCCCNC(CC(C)C)C(=O)OC` (stereo not drawn) [Example 2, Dimethyl 2,2′-(pentan-1,5-diylbis(azandiyl))bis(4-methylpentanoate)], under setting [1], the “Curing to a transparent film” value is ≤ 1 min and the “Time after which surface of the adhesive was no longer tacky” value amounted to 2 min.
The compound `CCOC(=O)C(C)NCCCCCNC(C)C(=O)OCC` (stereo not drawn) came in with a Processing time of 0.55 min.
Same read-out and setting: in the case of `CCOC(=O)C(C)NCCCCNC(C)C(=O)OCC` (stereo not drawn) it was 0.7 min.
